The values that follow come from patent publication US9198923B2, “Phosphate management with small molecules” (OPKO IRELAND GLOBAL HOLDINGS, LTD., priority 2009, dated 2015).

For data set [1], the system named is phosphate uptake in Caco-2 human intestinal epithelial cells. Put plainly: Dosage effect on phosphate uptake inhibition in Caco-2 cells. As to conditions: concentrations from 1 to 100 μM, FIG. 2. The class given is cell-based. The method, then: Caco-2 cells were cultured in DMEM medium containing 20% Fetal Bovine Serum. Medium from the sub-confluent monolayer of Caco-2 cells was removed. The resulting cells were washed with either a sodium free buffer (137 mM choline chloride, 5.4 mM KCl, 2.8 mM CaCl2, 1.2 mM MgSO4, and 14 mM Tris-HCl at pH 7.4), or with a buffer that contained sodium (137 mM sodium chloride, 5.4 mM KCl, 2.8 mM CaCl2, 1.2 mM MgSO4, and 14 mM Tris-HCl at pH 7.4). After the wash, sodium or sodium free buffer comprising 1 μM of radiolabeled phosphate (K2H^32PO4,1 μCi/mL) and 100 μM of a small molecule having a phosphate group that was selected from the group containing Compounds 001-029 was added to the cells and they were incubated for 20 min at 37° C. Phosphate uptake was terminated by removing the uptake media and washing the cells with an ice-cold solution of 14 mM Tris-HCl, pH 7.4 that contained 137 mM of either choline chloride or sodium chloride. The monolayers of the cells were solubilized by the addition of a 1% solution of Triton X-100 to extract the radiolabeled phosphate. Aliquots of the radiolabeled phosphate were added to scintillation fluid and the radioactivity was determined by liquid scintillation counting. The difference between the assays using the two solutions with or without sodium represents the sodium dependent transport of phosphate.
The procedure of example 1 was repeated using C-002, C-004, C-012, and C-028 at concentrations from 1 to 100 μM. The results were recorded as the percent of phosphate uptake inhibition versus concentration of the small molecule having a phosphate group.

Data set [2] relates to Caco-2 human epithelial cells. Put plainly: Caco-2 cell viability by ALAMAR BLUE stain reduction. The class given is cell-based. As to conditions: 100 μM compound, Caco-2 cells; FIG. 3; taken as nontoxic. The method, then:
Staining was performed with ALAMAR BLUE stain in the presence of 100 μM C-002, C-004, C-012, and C-028 cells to exclude compound toxicity in the phosphorus transport assay. Caco-2 cells were plated into a 96-well plate in concentrations which gave about 16,000 cells/well on the day of the test (e.g., 8000 cells/well for a 1 day growth, 4000 cells/well for a 2 day growth, 2000 cell/well for a 3 day growth). On the day of the test, old media was replaced by 80 μL of fresh media per well with either a 100 μM final concentration of the small molecule having a phosphate group in DMSO, or with 1% of DMSO in the control wells. Testing was performed in duplicate. ALAMAR BLUE stain (BioSource International, Inc., Cat#DAL1100) was added at a final concentration of 10% into each well according to manufacturer instructions. The cells were then incubated at 37° C. for another 18 or 24 hours, and the reduction of ALAMAR BLUE stain by vital cells was measured spectrophotometrically at 570 nm and 600 nm. The results were calculated as the percent of reduction using the formula in the manufacturer's manual (TREK Diagnostic Systems, PI-DIAL 1025/1100 Rev 1.0).

The subject of data set [3] is Caco-2 human epithelial cells. Put plainly: Caco-2 cell viability by trypan blue exclusion. The class given is cell-based. The following applies: 100 μM compound, one hour of incubation, sodium or sodium free buffer; FIG. 4. The method, then: Trypan blue exclusion was used to determine the effect of C-002, 004, 012, and 028 on cell viability. The cells were plated in the same way as the ALAMAR BLUE stain test (see above). On the day of the test, media was removed, cells were washed with PBS and incubated with 100 μM (final concentration) of C-002, C-004, C-012 and C-028 in either a sodium free buffer (137 mM choline chloride, 5.4 mM KCl, 2.8 mM CaCl2, 1.2 mM MgSO4, and 14 mM Tris-HCl at pH 7.4), or with a buffer that contained sodium (137 mM sodium chloride, 5.4 mM KCl, 2.8 mM CaCl2, 1.2 mM MgSO4, and 14 mM Tris-HCl at pH 7.4). Testing was performed in duplicate. After 1 hour of incubation the cells were detached with trypsin/EDTA, transferred to an Eppendorf tube, and their viability was counted using 0.4% trypan blue stain (Invitrogen, Cat.#15250-061) in a 1:4 dilution with confocal microscopy.

In a further data set the test system is Male Sprague Dawley rats. Put plainly: Maximum tolerated dose (MTD) in male Sprague Dawley rats. The class given is in vivo, rat. The following applies: oral, daily, 0.5, 5 and 10 mg per kg for twelve days; for effect on weight gain: FIG. 5. The method, then: Male Sprague Dawley rats were given C-002, C-004, C-012, C-021, C-022, C-023, and C-028 orally and daily at doses of 0.5, 5 and 10 mg per kg for twelve days. The mortality and animal weight data were recorded.

Take `Cc1csc(Nc2ccc([N+](=O)[O-])cc2)[n+]1CCC(O)(P(=O)(O)O)P(=O)(O)O` [C-012]: the “percent inhibition of phosphate uptake versus concentration” value (from here on “percent inhibition”) in data set [1] was “increased with the concentration”. The “percent difference in ALAMAR BLUE stain reduction after 18 and 24 hours” value in data set [2] is given as “virtually unchanged”. For the same molecule, the “viability of Caco-2 cells by trypan blue exclusion” value (shortened to “viability of Caco-2 cells”) in data set [3] was “no significant effect”. Moreover, in the data set on Male Sprague Dawley rats, the mortality result was “No death” and the “effect on weight gain” value is on record as “no significant effect”.

As for `O=P(O)(OC(c1ccccc1)C(F)(F)C(F)(F)C(F)(F)F)c1ccccc1` (centres unmarked) [C-028], in data set [1], the “percent inhibition” value was “increased with the concentration”. Further, the “percent difference in ALAMAR BLUE stain reduction after 18 and 24 hours” value in data set [2] was “virtually unchanged”. Moreover, in data set [3], the “viability of Caco-2 cells” value is “no significant effect”. Further, in the data set on Male Sprague Dawley rats, the mortality entry is on record as “No death” and the “effect on weight gain” value is reported as “no significant effect”.

As for `O=P(O)(O)c1c(Cl)c(Cl)nc(Cl)c1Cl` [C-002], the “percent inhibition” value in data set [1] is reported as “increased with the concentration”. In addition, the “percent difference in ALAMAR BLUE stain reduction after 18 and 24 hours” value in data set [2] was “virtually unchanged”. Besides, in data set [3], the “viability of Caco-2 cells” value is “no significant effect”. In addition, in the data set on Male Sprague Dawley rats, the mortality result is given as “No death” and the “effect on weight gain” value is “no significant effect”.

Take `C=C(c1ccccc1)P(=O)(O)O` [C-004]: in data set [1], the “percent inhibition” value is “increased with the concentration”. The “percent difference in ALAMAR BLUE stain reduction after 18 and 24 hours” value in data set [2] is “virtually unchanged”. Besides, the “viability of Caco-2 cells” value in data set [3] is “no significant effect”. For the same molecule, in the data set with Male Sprague Dawley rats, the mortality entry was “No death” and the “effect on weight gain” value is “no significant effect”.

As for `O=P(O)(O)/C=C/c1ccccc1` [C-023], in the data set on Male Sprague Dawley rats, the mortality entry is given as “No death” and the “effect on weight gain” value is “no significant effect”.

Regarding `O=P(O)(O)c1ccccc1OCCCl` [C-021], in the data set on Male Sprague Dawley rats, the mortality entry is reported as “No death” and the “effect on weight gain” value is on record as “no significant effect”.

`O=P(O)(O)c1ccccc1OCCCOc1ccccc1P(=O)(O)O` [C-022]: in the data set with Male Sprague Dawley rats, the mortality result is given as “No death” and the “effect on weight gain” value is “no significant effect”.
